Laboratory results: PubChem BioAssay AID2060617 (Molecular Pharmacology Branch, DTP, NCI, 2025)

Test system: 485368-065-R4-J2-PDC spheroids with HUVEC/MSC, viability
Test: Anticancer human tumor 485368-065-R4-J2-PDC patient-derived pancreatic carcinoma cell line growth inhibition [CLK]
Conditions: for IC50: curve of first compound; for viability, T/C: stronger effect = lower value
How it was run: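 Patient-derived tumor cells grown as complex spheroids with HUVEC endothelial cells and mesenchymal stem cells, treated with drug combinations. Concentrations descend in half-log steps from near clinical Cmax, or from 10 microM if Cmax unknown.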

[1] = second compound 0.0316 µM, first compound 0.0316 µM
[2] = second compound 0.0316 µM, first compound 0.1 µM
[3] = second compound 0.1 µM, first compound 0.0316 µM
[4] = second compound 0.1 µM, first compound 0.1 µM
[5] = second compound 0.316 µM, first compound 0.0316 µM
[6] = second compound 0.316 µM, first compound 0.1 µM
[7] = second compound 1 µM, first compound 0.0316 µM
[8] = second compound 1 µM, first compound 0.1 µM
[9] = second compound 3.16 µM, first compound 0.0316 µM
[10] = second compound 3.16 µM, first compound 0.1 µM
[11] = second compound 10 µM, first compound 0.0316 µM
[12] = second compound 10 µM, first compound 0.1 µM
[13] = second compound 0.0316 µM, first compound 0.316 µM
[14] = second compound 0.0316 µM, first compound 1 µM
[15] = second compound 0.0316 µM, first compound 3.16 µM
[16] = second compound 0.0316 µM, first compound 10 µM
[17] = second compound 0.1 µM, first compound 0.316 µM
[18] = second compound 0.1 µM, first compound 1 µM
[19] = second compound 0.1 µM, first compound 3.16 µM
[20] = second compound 0.1 µM, first compound 10 µM
[21] = second compound 0.316 µM, first compound 0.316 µM
[22] = second compound 0.316 µM, first compound 1 µM
[23] = second compound 0.316 µM, first compound 3.16 µM
[24] = second compound 0.316 µM, first compound 10 µM
[25] = second compound 1 µM, first compound 0.316 µM
[26] = second compound 1 µM, first compound 1 µM
[27] = second compound 1 µM, first compound 3.16 µM
[28] = second compound 1 µM, first compound 10 µM
[29] = second compound 3.16 µM, first compound 0.316 µM
[30] = second compound 3.16 µM, first compound 1 µM
[31] = second compound 3.16 µM, first compound 3.16 µM
[32] = second compound 3.16 µM, first compound 10 µM
[33] = second compound 10 µM, first compound 0.316 µM
[34] = second compound 10 µM, first compound 1 µM
[35] = second compound 10 µM, first compound 3.16 µM
[36] = second compound 10 µM, first compound 10 µM
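Also: spheroids exposed to compounds for seven days.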
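For viability, T/C in this document: 100% = DMSO vehicle control wells.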

SMILES: Cn1ncnc1[C@H]1c2n[nH]c(=O)c3cc(F)cc(c23)N[C@@H]1c1ccc(F)cc1 + CNC(=O)c1ccc(Nc2nc(OC3CCCC3)c3c(-c4ccc5nc(C)oc5c4)c[nH]c3n2)c(OC)c1
- IC50 (second compound 0.0316 µM): > 0.1 µM
- IC50 (second compound 0.1 µM): > 0.1 µM
- IC50 (second compound 0.316 µM): > 0.1 µM
- IC50 (second compound 1 µM): > 0.1 µM
- IC50 (second compound 3.16 µM): > 0.1 µM
- IC50 (second compound 10 µM): > 0.1 µM
- viability, T/C (second compound 0.0316 µM, first compound 0.000316 µM): 91.9%
- viability, T/C (second compound 0.0316 µM, first compound 0.001 µM): 94.1%
- viability, T/C (second compound 0.0316 µM, first compound 0.00316 µM): 97.4%
- viability, T/C (second compound 0.0316 µM, first compound 0.01 µM): 105%
- viability, T/C [1]: 98%
- viability, T/C [2]: 90.8%
- viability, T/C (second compound 0.1 µM, first compound 0.000316 µM): 89.3%
- viability, T/C (second compound 0.1 µM, first compound 0.001 µM): 97.8%
- viability, T/C (second compound 0.1 µM, first compound 0.00316 µM): 99%
- viability, T/C (second compound 0.1 µM, first compound 0.01 µM): 105%
- viability, T/C [3]: 89.7%
- viability, T/C [4]: 82.4%
- viability, T/C (second compound 0.316 µM, first compound 0.000316 µM): 79.6%
- viability, T/C (second compound 0.316 µM, first compound 0.001 µM): 79.5%
- viability, T/C (second compound 0.316 µM, first compound 0.00316 µM): 81.2%
- viability, T/C (second compound 0.316 µM, first compound 0.01 µM): 77.9%
- viability, T/C [5]: 89%
- viability, T/C [6]: 73%
- viability, T/C (second compound 1 µM, first compound 0.000316 µM): 74.7%
- viability, T/C (second compound 1 µM, first compound 0.001 µM): 75.8%
- viability, T/C (second compound 1 µM, first compound 0.00316 µM): 79%
- viability, T/C (second compound 1 µM, first compound 0.01 µM): 66.6%
- viability, T/C [7]: 77%
- viability, T/C [8]: 63.3%
- viability, T/C (second compound 3.16 µM, first compound 0.000316 µM): 78.4%
- viability, T/C (second compound 3.16 µM, first compound 0.001 µM): 74.3%
- viability, T/C (second compound 3.16 µM, first compound 0.00316 µM): 69.8%
- viability, T/C (second compound 3.16 µM, first compound 0.01 µM): 67.4%
- viability, T/C [9]: 59.1%
- viability, T/C [10]: 66%
- viability, T/C (second compound 10 µM, first compound 0.000316 µM): 70%
- viability, T/C (second compound 10 µM, first compound 0.001 µM): 69.7%
- viability, T/C (second compound 10 µM, first compound 0.00316 µM): 60.8%
- viability, T/C (second compound 10 µM, first compound 0.01 µM): 62.9%
- viability, T/C [11]: 64.2%
- viability, T/C [12]: 57.9%

SMILES: Nc1ccn(C2OC(CO)C(O)C2(F)F)c(=O)n1 (stereo unspecified) + CNC(=O)c1ccc(Nc2nc(OC3CCCC3)c3c(-c4ccc5nc(C)oc5c4)c[nH]c3n2)c(OC)c1
- IC50 (second compound 0.0316 µM): 0.0732 µM
- IC50 (second compound 0.1 µM): 0.0653 µM
- IC50 (second compound 0.316 µM): 0.0493 µM
- IC50 (second compound 1 µM): 0.0432 µM
- IC50 (second compound 3.16 µM): 0.0343 µM
- IC50 (second compound 10 µM): < 0.0316 µM
- viability, T/C [1]: 66.8%
- viability, T/C [2]: 45%
- viability, T/C [13]: 32.3%
- viability, T/C [14]: 35.2%
- viability, T/C [15]: 33.5%
- viability, T/C [16]: 30.5%
- viability, T/C [3]: 62.8%
- viability, T/C [4]: 43.4%
- viability, T/C [17]: 31.1%
- viability, T/C [18]: 33.4%
- viability, T/C [19]: 32.4%
- viability, T/C [20]: 26.6%
- viability, T/C [5]: 59.8%
- viability, T/C [6]: 34%
- viability, T/C [21]: 27.5%
- viability, T/C [22]: 24.8%
- viability, T/C [23]: 25.1%
- viability, T/C [24]: 21.8%
- viability, T/C [7]: 58%
- viability, T/C [8]: 28.2%
- viability, T/C [25]: 20.7%
- viability, T/C [26]: 17.2%
- viability, T/C [27]: 16.1%
- viability, T/C [28]: 13.9%
- viability, T/C [9]: 51.8%
- viability, T/C [10]: 28.1%
- viability, T/C [29]: 18.7%
- viability, T/C [30]: 15.4%
- viability, T/C [31]: 14.5%
- viability, T/C [32]: 13.2%
- viability, T/C [11]: 50%
- viability, T/C [12]: 24.5%
- viability, T/C [33]: 18.6%
- viability, T/C [34]: 16%
- viability, T/C [35]: 13.3%
- viability, T/C [36]: 11.2%

SMILES: O=c1[nH]cc(F)c(=O)[nH]1 + CNC(=O)c1ccc(Nc2nc(OC3CCCC3)c3c(-c4ccc5nc(C)oc5c4)c[nH]c3n2)c(OC)c1
- IC50 (second compound 0.0316 µM): > 10 µM
- IC50 (second compound 0.1 µM): > 10 µM
- IC50 (second compound 0.316 µM): > 10 µM
- IC50 (second compound 1 µM): > 10 µM
- IC50 (second compound 3.16 µM): > 10 µM
- IC50 (second compound 10 µM): > 10 µM
- viability, T/C [1]: 82%
- viability, T/C [2]: 98.8%
- viability, T/C [13]: 80.4%
- viability, T/C [14]: 97.6%
- viability, T/C [15]: 95.1%
- viability, T/C [16]: 81%
- viability, T/C [3]: 95.5%
- viability, T/C [4]: 99.2%
- viability, T/C [17]: 97%
- viability, T/C [18]: 103%
- viability, T/C [19]: 93.6%
- viability, T/C [20]: 82.3%
- viability, T/C [5]: 81.4%
- viability, T/C [6]: 80.7%
- viability, T/C [21]: 81.3%
- viability, T/C [22]: 82%
- viability, T/C [23]: 87.3%
- viability, T/C [24]: 74.2%
- viability, T/C [7]: 79.2%
- viability, T/C [8]: 83.7%
- viability, T/C [25]: 75%
- viability, T/C [26]: 75.9%
- viability, T/C [27]: 71%
- viability, T/C [28]: 62.8%
- viability, T/C [9]: 69.4%
- viability, T/C [10]: 70.4%
- viability, T/C [29]: 69.5%
- viability, T/C [30]: 73.3%
- viability, T/C [31]: 68.1%
- viability, T/C [32]: 64.1%
- viability, T/C [11]: 63.3%
- viability, T/C [12]: 69.6%
- viability, T/C [33]: 72.1%
- viability, T/C [34]: 64.1%
- viability, T/C [35]: 67%
- viability, T/C [36]: 51.8%
